Assay results reported in US20220324868A1, “Pyrazolone-Fused Pyrimidine Compound, and Preparation Method and Use Therefor” (SHANGHAI PHARMACEUTICALS HOLDING CO., LTD., priority 2019, published 2022).
Like-named read-outs stand apart in the source and are kept apart here.

Experiments:
Hela cells = test: Proliferation inhibition of Hela cells (Luminescence ATP Detection, ATPlite); assay type: cell-based; settings: Homo sapiens, 72 hours
Procedure: (§1) I. Proliferation Inhibitory of the Compound on COLO 205 Cells and Hela Cells.
(§2) COLO205 cells, purchased from SIBS, generation P11; Hela purchased from ATCC, generation P13.
Cell culture and inoculation: on the first day of the experiment, cells in normal culture were taken in their exponential growth state, digested and dispersed, the cell density was adjusted to 9×10^3 cells/mL, and 40 μL per well were inoculated into 384-well cell culture plates; after inoculation was completed, the microplates were placed at 37° C. and 5% CO2 for incubation.
(§3) Drug treatment of cells: on the second day of the experiment, microplates were removed from the incubator, 9× compound were added to each well in the microplate, and 5 μL was added to each well, wherein there were 2 replicate wells for each drug concentration and 10 drug concentrations for each compound. According to different cell lines, the initial concentration of each compound was different, after the completion, the microplate was cultured at 37° C. and 5% CO2 for 72 hours.
(§4) Data collection: the microplates were removed from the incubator and equilibrated at room temperature for 30 minutes. 40 μL of ATPlite reaction mixture after room temperature equilibrium was added to each well, the solution was shaken at room temperature of 1300 rpm for 2 minutes, and then the microplate was placed in a HERAEUS Multifuge X1R centrifuge at 2000 rpm for 1 minute; after equilibrium at room temperature for 10 minutes, the fluorescence signal value was measured on EnVision™.
(§5) Calculation of cell viability: Cell viability(%)=signal value of administration/signal value of controlx 100%. Graphpad Prism 5.0 was used to fit Log(inhibitor) vs. response-Variable slope (four parameters) curves to the fluorescence signal values at each concentration, and the corresponding IC50 (half maximal inhibitory concentration) was calculated.

WEE1 kinase = target: T1, WEE1 kinase (Homo sapiens, UniProt P30291); test: Inhibitory effect on WEE1 kinase in vitro (ELISA); assay type: biochemical; settings: ATP concentration of Km (12 μM), WEE1 0.15 ng/μL, 60 min
T1 construct: purchased CarnaBiosciences, Inc. 05-177
Procedure: I. Inhibitory Effect of Compound on WEE1 Kinase In Vitro
The tested compounds were screened on WEE1 kinase with ATP concentration of Km by ELISA. Three compounds were screened on WEE1 kinase to evaluate the kinase inhibitory activity of the tested compounds. In the detection process, the initial concentration of the tested compounds was all selected as 100 nM, and each compound was selected with 6 gradient dilution concentrations, the gradient dilution ratio was 4-fold, and two replicate wells were detected for each concentration, MK1775 was used as the standard control.
1. Coating substrate: 1) An appropriate volume of substrate storage solution protein tyrosinase (PTK) substrate (poly-Glu-Tyr) was taken, diluted 10 times with PBS, and the concentration was diluted from […]. The mixture was added to a high adsorption 96-well plate at 125 μL per well. The plate was placed in an incubator at 37° C. for overnight coating. 2) After 24 hours, the 96-well plate was taken out, the liquid in the 96-well plate was poured out, cleaned with washing buffer for 3 times, and the incubator at 37 was inverted and dried for 2 hours.
3. Enzyme reaction stage: 1) WEE1 kinase and ATP were prepared into 2× enzyme solution and 4× ATP solution respectively with 1× reaction buffer.
4. Reaction termination stage: 1) the reaction mixture in the plate was poured out, 200 μL of washing buffer was added to each well, and washed for 5 times; the primary antibody P-Tyr (PY99) (dilution ratio 1:2000) was added, 100 μL per well, at room temperature for 30 min. 2) The primary antibody in the plate was poured out, 200 μL of washing buffer was added to each well, and washed for 5 times; the second antibody Anti-mouse IgG HRP-linked Antibody (dilution ratio 1:2000) was added, 100 μL per well, at room temperature for 30 min. 3) The secondary antibody in the plate was poured out, washed 5 times with washing buffer, and TMB was added, 100 μL per well, and colored for 10-30 min, depending on the color depth. The reaction was terminated with 1N sulfuric acid before reading.
5. […] 2) Graphpad Prism 5.0 was used to fit Log(inhibitor) vs. response-Variable slope (four parameters) curves to the data, and the corresponding IC50 (half maximal inhibitory concentration) was calculated.

COLO 205 cells = test: Proliferation inhibition of COLO 205 cells (Luminescence ATP Detection, ATPlite); assay type: cell-based; settings: Homo sapiens; p53-deficient cell line COLO 205, 72 hours
Procedure: as §1, §2
as §3, with “third” for “second”
as §4, with “collection: The” for “collection: the”, “minutes. 100” for “minutes. 40”
as §5

T1 sequence (P30291 whole entry): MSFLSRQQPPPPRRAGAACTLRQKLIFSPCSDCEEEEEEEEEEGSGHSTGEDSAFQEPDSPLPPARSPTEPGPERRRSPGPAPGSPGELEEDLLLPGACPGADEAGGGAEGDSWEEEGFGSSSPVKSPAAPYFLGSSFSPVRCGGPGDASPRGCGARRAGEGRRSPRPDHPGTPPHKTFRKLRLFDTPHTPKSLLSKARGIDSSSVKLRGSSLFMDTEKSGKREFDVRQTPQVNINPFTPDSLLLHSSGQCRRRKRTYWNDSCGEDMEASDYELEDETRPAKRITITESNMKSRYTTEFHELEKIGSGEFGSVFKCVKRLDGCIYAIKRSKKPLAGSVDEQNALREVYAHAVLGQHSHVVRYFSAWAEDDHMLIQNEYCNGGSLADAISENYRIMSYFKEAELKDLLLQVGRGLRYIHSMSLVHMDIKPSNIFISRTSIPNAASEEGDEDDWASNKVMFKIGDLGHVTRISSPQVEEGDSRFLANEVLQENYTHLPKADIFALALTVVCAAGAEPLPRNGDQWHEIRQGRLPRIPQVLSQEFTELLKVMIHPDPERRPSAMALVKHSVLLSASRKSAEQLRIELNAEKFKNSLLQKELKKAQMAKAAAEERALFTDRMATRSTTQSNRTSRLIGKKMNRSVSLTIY

IC50 (Hela cells) [nM] | IC50 (WEE1 kinase; read-out: WEE1 IC50) [nM] | IC50 (COLO 205 cells) [nM] | Compound | IC50 (WEE1 kinase; WEE1 IC50, nM) [nM]
190 | 3.41 | 886 | C=CCn1c(=O)c2cnc(Nc3ccc(N4CCC5(CC4)CN(C)C5)cc3)nc2n1-c1ccc2c(n1)C(C)(O)CC2 (stereo not drawn) [Compound I-13, 2-allyl-1-(7-hydroxy-7-methyl-6,7-dihydro-5H-cyclopenta[b]pyridin-2-yl)-6-((4-(2-methyl-2,7-diazaspiro[3.5]nonan-7-yl)phenyl)amino)-1,2-dihydro-3H-pyrazolo[3,4-d]pyrimidin-3-one] | 
192 | 2.81 | 363 | C=CCn1c(=O)c2cnc(Nc3ccc(N4CC5(CCN(C)CC5)C4)cc3)nc2n1-c1ccc2c(n1)C(C)(O)CC2 (stereo not drawn) [Compound I-14, 2-allyl-1-(7-hydroxy-7-methyl-6,7-dihydro-5H-cyclopenta[b]pyridin-2-yl)-6-((4-(7-methyl-2,7-diazaspiro[3.5]nonan-2-yl)phenyl)amino)-1,2-dihydro-3H-pyrazolo[3,4-d]pyrimidin-3-one] | 
200 | 3.48 | 891 | C=CCn1c(=O)c2cnc(Nc3ccc(N4C[C@H]5CNC[C@H]5C4)cc3)nc2n1-c1ccc2c(n1)C(C)(O)CCC2 (stereo partly drawn) [Compound I-33, 2-allyl-6-((4-((3aR, 6aS)hexahydropyrrolo[3,4-c]pyrrolo-2(1H)-yl)phenyl)amino)-1-(8-hydroxy-8-methyl-5,6,7,8-tetrahydroquinolin-2-yl)-1,2-dihydro-3H-pyrazolo[3,4-d]pyrimidin-3-one] | 
214 | 4.79 | 1580 | C=CCn1c(=O)c2cnc(Nc3ccc(C4CCC(N(C)C)CC4)cc3)nc2n1-c1ccc2c(n1)C(C)(O)CC2 (stereo not drawn) [Compound I-34] | 
147 | 3.15 | 473 | C=CCn1c(=O)c2cnc(Nc3ccc(N4CC5CN(C)CC5C4)cc3)nc2n1-c1ccc2c(n1)C(C)(O)CC2 (stereo not drawn) [Compound I-35, 2-allyl-1-(7-hydroxy-7-methyl-6,7-dihydro-5H-cyclopenta[b]pyridin-2-yl)-6-((4-(-5-methylhexahydropyrrolo[3,4-c]pyrrol-2(1H)-yl)phenyl)amino)-1,2-dihydro-3H-pyrazolo[3,4-d]pyrimidin-3-one] | 

The remaining lines, values behind:

Compound | IC50 (Hela cells) [nM] | IC50 (WEE1 kinase; read-out: WEE1 IC50) [nM] | IC50 (COLO 205 cells) [nM] | IC50 (WEE1 kinase; WEE1 IC50, nM) [nM]
C=CCn1c(=O)c2cnc(Nc3ccc(N4CC5(CCN(C)CC5)C4)cc3)nc2n1-c1ccc2c(n1)C(O)CC2 (stereo not drawn) [Compound I-10] | 206 | 8.59 | 920 | 
C=CCn1c(=O)c2cnc(Nc3ccc(N4CC5(CCN(CC)CC5)C4)cc3)nc2n1-c1ccc2c(n1)C(O)CC2 (stereo not drawn) [Compound I-11] | 317 | 11.3 | 1190 | 
C=CCn1c(=O)c2cnc(Nc3ccc(N4CCN(C)CC4)cc3)nc2n1-c1ccc2c(n1)C(C)(O)CC2 (stereo not drawn) [Compound I-16, 2-allyl-1-(7-hydroxy-7-methyl-6,7-dihydro-5H-cyclopenta[b]pyridin-2-yl)-6-((4-(4-methylpiperazin-1-yl)phenyl)amino)-1,2-dihydro-3H-pyrazolo[3,4-d]pyrimidin-3-one] | 316 |  | 1620 | 3.99
C=CCn1c(=O)c2cnc(Nc3ccc(N4CCN(C)CC4)cc3)nc2n1-c1ccc2c(n1)C(C)(O)CCC2 (stereo not drawn) [Compound I-19, 2-allyl-1-(8-hydroxy-8-methyl-5,6,7,8-tetrahydroquinolin-2-yl)-6-((4-(4-methylpiperazin-1-yl)phenyl)amino)-1,2-dihydro-3H-pyrazolo[3,4-d]pyrimidin-3-one] | 170 |  | 944 | 1.89
C=CCn1c(=O)c2cnc(Nc3ccc(N4CCN(C)CC4)cc3)nc2n1-c1ccc2c(n1)C(O)CCC2 (stereo not drawn) [Compound I-23] | 534 | 2.87 | 1670 | 
C=CCn1c(=O)c2cnc(Nc3ccc(N4C[C@H]5CN(C)C[C@H]5C4)cc3)nc2n1-c1ccc2c(n1)C(C)(O)CCC2 (stereo partly drawn) [Compound I-32, 2-allyl-1-(8-hydroxy-8-methyl-5,6,7,8-tetrahydroquinolin-2-yl)-6-((4-((3aR,6aS)-5-methylhexahydropyrrolo[3,4-c]pyrrole-2(1H)-yl)phenyl)amino)-1,2-dihydro-3H-pyrazolo[3,4-d]pyrimidin-3-one] | 148 | 4.79 | 541 | 
C=CCn1c(=O)c2cnc(Nc3ccc(N4C[C@@H]5CN(C6CCC6)C[C@@H]5C4)cc3)nc2n1-c1ccc2c(n1)C(O)CC2 (stereo partly drawn) [Compound I-38] | 134 | 2.43 | 451 | 
C=CCn1c(=O)c2cnc(Nc3ccc(N4C[C@@H]5CN(C(C)C6CC6)C[C@@H]5C4)cc3)nc2n1-c1ccc2c(n1)C(O)CC2 (stereo partly drawn) [Compound I-41] | 224 | 10.6 | 786 | 
